Laboratory results taken from patent US11877996B1 (priority 2023, dated 2024).
Entries after “also recorded” stand apart in the source; their conditions may differ.

Legend:
[1] = target: T1, PfGS-I (P. falciparum glutamine synthetase, MBP-fused) (Plasmodium falciparum, UniProt W7JM41); test: Glutamine synthetase assay (Glutamine/Glutamate-GLO), PfGS-I; assay type: biochemical
T1 sequence (W7JM41 1-544): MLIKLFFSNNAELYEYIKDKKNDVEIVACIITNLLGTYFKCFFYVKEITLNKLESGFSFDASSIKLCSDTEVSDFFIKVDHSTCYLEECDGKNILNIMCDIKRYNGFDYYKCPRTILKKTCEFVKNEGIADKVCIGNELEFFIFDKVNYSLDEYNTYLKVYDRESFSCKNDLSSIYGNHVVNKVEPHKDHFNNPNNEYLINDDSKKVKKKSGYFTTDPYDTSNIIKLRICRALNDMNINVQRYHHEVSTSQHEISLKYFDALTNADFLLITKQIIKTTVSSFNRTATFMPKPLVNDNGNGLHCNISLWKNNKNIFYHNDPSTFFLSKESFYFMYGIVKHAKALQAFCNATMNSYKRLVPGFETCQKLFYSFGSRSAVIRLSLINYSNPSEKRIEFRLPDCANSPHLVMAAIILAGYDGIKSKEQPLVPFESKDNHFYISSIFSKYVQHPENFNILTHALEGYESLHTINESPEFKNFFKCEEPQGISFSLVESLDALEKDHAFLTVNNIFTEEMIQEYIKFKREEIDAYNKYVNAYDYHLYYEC
Experimental: (§1) The activity and inhibition profiles of purified MBP-fused PfGS-I or human GS-II (hGS-II) (BioVision Inc., Milpitas, CA, USA) in the presence or absence of AST were estimated from glutamine production using Glutamine/Glutamate-GLO™ Assay Kit (Promega, Madison, WI). The assay mixture (50 mM imidazole-HCl buffer (pH 7.0), 7.6 mM ATP, 50 mM magnesium chloride, 50 mM ammonium chloride) with or without the indicated concentration of GS enzyme was preincubated in the presence or absence of the indicated concentrations of AST for 15 min at room temperature. The reaction was initiated by addition of L-glutamate at 0.1 mM, final concentration. The reaction mixtures were incubated at 37° C. with shaking at 300 rpm for indicated time. The reactions were terminated by chilling the reaction mixture in ice water and filtered with 30 kDa Amicon Ultra centrifugal filters at 4° C. Glutamate concentrations in the filtered samples were determined using Glutamine/Glutamate-GLO™ Assay as instructed in the kit's manual, from which glutamine concentrations were estimated by subtracting the glutamate concentrations from the initial concentrations (0.1 mM). The half maximal effective concentration (EC50) of AST for PfGS-I was calculated using Sigma Plot (Systat Software, Inc., Sun Jose, CA).

human GS-II (hGS-II) = target: T2, human GS-II (hGS-II) (Homo sapiens, UniProt P15104); test: Glutamine synthetase assay (Glutamine/Glutamate-GLO), human GS-II; assay type: biochemical; conditions: 1 μM AST, 1 μM hGS-II, 30 min
T2 construct: purchased BioVision Inc
Experimental: as §1

[2] = tested on: asexual-stage P. falciparum; test: Antimalarial activity on the asexual stage of P. falciparum (parasitemia in infected red blood cells); assay type: cell-based, Plasmodium falciparum
Experimental: 3-5-day cultured P. falciparum-infected red blood cells (iRBCs) were mixed with fresh human RBCs (AB+ type) in complete RPMI 1640 to prepare cultures with 0.5% parasitemia and 2% hematocrit. AST was dissolved in DMSO. […] The plate was incubated in a candle jar at 37° C. Approximately 48 h later, the medium was replaced with fresh medium containing the same concentration of AST. Parasitemia was recorded on day 4 post-incubation.

[3] = tested on: sexual-stage P. falciparum transmission to Anopheles gambiae; test: Transmission-blocking standard membrane feeding assay (SMFA), oocysts in An. gambiae midguts; assay type: in vivo, Plasmodium falciparum
Experimental: P. falciparum (NF54) was cultured in the complete RPMI-1640 containing 4% new O+ human red blood cells, 10% human AB+ serum, and 12.5 μg/ml of hypoxanthine in a candle jar at 37° C. Standard membrane feeding assays (SMFA) were used to examine the efficacy of AST. In brief, 10 ml of day-15 cultured P. falciparum containing ˜2% stage V gametocytes in a 15 ml centrifuge tube was centrifuged at 650×g for 5 min at RT. After the supernatant was removed, the cells were re-suspended in 1 ml of pre-warmed human AB− serum (37° C.), to which 1 ml of O+ hematocrit was added. […] The unfed mosquitoes were removed, and the engorged mosquitoes were maintained with 10% sugar in the insectary. Seven days post-infection, the midguts were dissected and stained with 0.1% mercury dibromofluorescein salt in PBS for 30 minutes. The number of oocysts was counted under a 10× light microscope.

[4] = tested on: Anopheles gambiae mosquitoes; test: Mosquito mortality observed in SMFA (insecticidal activity); assay type: in vivo; conditions: 0.1 to 3 μM in blood meal
Experimental: P. falciparum (NF54) was cultured in the complete RPMI-1640 containing 4% new O+ human red blood cells, 10% human AB+ serum, and 12.5 μg/ml of hypoxanthine in a candle jar at 37° C. Standard membrane feeding assays (SMFA) were used to examine the efficacy of AST. In brief, 10 ml of day-15 cultured P. falciparum containing ˜2% stage V gametocytes in a 15 ml centrifuge tube was centrifuged at 650×g for 5 min at RT. After the supernatant was removed, the cells were re-suspended in 1 ml of pre-warmed human AB− serum (37° C.), to which 1 ml of O+ hematocrit was added. 300 μl of the resulting infected blood were mixed with 2 μl of AST at different concentrations, yielding a final concentration of 0, 0.1, 0.3, 1, or 3 μM, which was fed a hundred 3-5-day-old female mosquitoes for 30 minutes. The unfed mosquitoes were removed, and the engorged mosquitoes were maintained with 10% sugar in the insectary. Seven days post-infection, the midguts were dissected and stained with 0.1% mercury dibromofluorescein salt in PBS for 30 minutes. The number of oocysts was counted under a 10× light microscope.

[5] = tested on: macrophage-like cells differentiated from THP-1
[6] = tested on: human cell lines (HEK293, THP-1, macrophage, HepG2, Caco-2)
[7] = tested on: human cell lines (HEK293, THP-1, macrophage, HepG2, Caco-2); test: MTT cytotoxicity assay, five human cell lines overall
[8] = tested on: human cell lines (HEK293, THP-1, macrophage, HepG2, Caco-2); test: Stability in culture media and human cell lysates (arsenic speciation by HPLC-ICP-MS); conditions: 100 μM AST, 48 h, five human cell lines

T2 sequence (P15104 whole entry): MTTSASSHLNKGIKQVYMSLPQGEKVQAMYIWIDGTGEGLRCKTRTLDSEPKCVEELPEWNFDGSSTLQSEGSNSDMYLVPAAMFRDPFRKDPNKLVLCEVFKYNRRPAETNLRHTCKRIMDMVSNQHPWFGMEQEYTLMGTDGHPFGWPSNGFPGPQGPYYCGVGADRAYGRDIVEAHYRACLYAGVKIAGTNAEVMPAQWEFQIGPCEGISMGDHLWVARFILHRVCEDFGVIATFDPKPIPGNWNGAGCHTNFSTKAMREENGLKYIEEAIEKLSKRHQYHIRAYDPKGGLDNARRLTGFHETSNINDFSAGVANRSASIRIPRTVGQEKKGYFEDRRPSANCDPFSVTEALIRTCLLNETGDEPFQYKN

Which EC50 ([1]; 0.5 μM PfGS-I, 2 hours, read-out: EC50 for PfGS-I inhibition) does the source give for `C[As](=O)(O)CC[C@H](N)C(=O)O` [AST, 2-amino-4-(hydroxymethylarsinoyl)butanoate] here?
Its EC50 is 0.4 µM.

What about the “reduction of PfGS-I activity” value ([1]; 1 μM AST) of the same compound?
The value was “more than 60%”.

And the “activity of PfGS-I compared with the control without AST treatment” value ([1]; 1 μM AST, 1 μM PfGS-I, 30 min)?
The value was “less than 40%”.

What about the “inhibition of PfGS-I activity” value ([1]; AST at 100 μM) of the same compound?
The value was “completely inhibits”.

And the “effect on hGS-II activity” value (human GS-II (hGS-II))?
The value was “did not significantly reduce; also recorded: little effect”.

What about the “inhibition of P. falciparum proliferation in blood” value ([2]; AST at 100 μM) of the same compound?
The value was “completely inhibits”.

What about the EC50 ([2]; infected human blood, 0.5% parasitemia, 2% hematocrit, day 4, read-out: EC50 in inhibiting asexual-stage P. falciparum (50% of parasitemia rate vs AST-free control)) of the same compound?
Its EC50 is 13.9 µM.

And the “inhibition of P. falciparum transmission to An. gambiae compared to PT and MSO” value ([3]; 3 μM, SMFA, oocysts day 7)?
The value was “significantly inhibits”.

What about the “inhibition of malaria transmission” value ([3]; 3 μM, SMFA, oocysts day 7) of the same compound?
The value was “completely inhibited”.

And the “inhibition of transmission to mosquitoes” value ([3]; AST at 100 μM)?
The value was “completely inhibits”.

And the EC50 ([3]; SMFA, An. gambiae, oocysts day 7 post-infection, read-out: EC50 in blocking transmission of sexual-stage P. falciparum to mosquitos (50% of oocysts per mosquito vs control))?
Its EC50 is 0.34 µM.

What about the “dead mosquitoes (insecticidal activity)” value [4] of the same compound?
Its value is “no dead mosquitoes were observed”.

And the CC50 (HEK293 cells)?
The CC50 was > 250 µM.

And the CC50 (THP-1 cells)?
Its CC50 is > 250 µM.

And the CC50 [5]?
The CC50 was > 250 µM.

And the CC50 (HepG2 cells)?
The CC50 was > 250 µM.

What about the CC50 (Caco-2 cells) of the same compound?
The CC50 was 150 to 200 µM.

And the “permeability (total arsenic levels in cells)” value [6]?
The value was “permeable to cytomembrane”.

What about the “permeability to HepG2 cells” value [6] of the same compound?
The value was “moderately permeable”.

And the “effect on viability of the tested human cell lines” value ([7]; AST at 100 μM, most of the tested cell lines)?
Its value is “little effect”.

What about the “times less cytotoxic than As(III)” value ([7]; ratio of LC50 values, human cell lines) of the same compound?
Its value is > 10 times.

What about the “arsenic species in culture media and cell lysates (stability)” value [8] of the same compound?
Its value is “almost exclusively AST”.
